Source: patent US20230250129A1, “NEUROACTIVE STEROIDS AND COMPOSITIONS THEREOF” (Sage Therapeutics, Inc., priority 2020, published 2023)

Target: [35S]-TBPS binding, rat brain cortical membranes (GABAA receptor)
Assay: Steroid inhibition of [35S]-TBPS binding
Conditions: 3 nM [35S]-TBPS, in the presence of 5 mM GABA, 90 min at room temp
Procedure: Steroid Inhibition of TBPS Binding
[^35S]-t-Butylbicyclophosphorothionate (TBPS) binding assays using rat brain cortical membranes in the presence of 5 mM GABA has been described (Gee et al, J. Pharmacol. Exp. Ther. 1987, 241, 346-353; Hawkinson et al, Mol. Pharmacol. 1994, 46, 977-985; Lewin, A. H et al., Mol. Pharmacol. 1989, 35, 189-194).
Briefly, cortices are rapidly removed following decapitation of carbon dioxide-anesthetized Sprague-Dawley rats (200-250 g). The cortices are homogenized in 10 volumes of ice-cold 0.32 M sucrose using a glass/teflon homogenizer and centrifuged at 1500×g for 10 min at 4° C. The resultant supernatants are centrifuged at 10,000×g for 20 min at 4° C. to obtain the P2 pellets. The P2 pellets are resuspended in 200 mM NaCl/50 mM Na—K phosphate pH 7.4 buffer and centrifuged at 10,000×g for 10 min at 4° C. This washing procedure is repeated twice and the pellets are resuspended in 10 volumes of buffer. Aliquots ([…]) of the membrane suspensions are incubated with 3 nM [^35S]-TBPS and […] aliquots of test drug dissolved in dimethyl sulfoxide (DMSO) (final 0.5%) in the presence of 5 mM GABA. The incubation is brought to a final volume of 1.0 mL with buffer. Nonspecific binding is determined in the presence of […] and ranged from 15 to 25%. Following a 90 min incubation at room temp, the assays are terminated by filtration through glass fiber filters (Schleicher and Schuell No. 32) using a cell harvester (Brandel) and rinsed three times with ice-cold buffer. Filter bound radioactivity is measured by liquid scintillation spectrometry. Non-linear curve fitting of the overall data for each drug averaged for each concentration is done using Prism (GraphPad). […] The concentration of test compound producing 50% inhibition (IC50) of specific binding and the maximal extent of inhibition (Imax) are determined for the individual experiments with the same model used for the overall data and then the means±SEM.s of the individual experiments are calculated.
Various compounds are or can be screened to determine their potential as modulators of [^35S]-TBPS binding in vitro. These assays are or can be performed in accordance with the above

`CCC[C@@]1(O)CC[C@H]2[C@H](CC[C@@H]3[C@@H]2CC[C@]2(C)[C@@H](C(=O)Nc4cnc(C#N)cn4)CC[C@@H]32)C1` [Compound 69, (3R,5R,8R,9R,10S,13S,14S,17S)—N-(5-cyanopyrazin-2-yl)-3-hydroxy-13-methyl-3-propylhexadecahydro-1H-cyclopenta[a]phenanthrene-17-carboxamide] and `COC[C@@]1(O)CC[C@H]2[C@H](CC[C@@H]3[C@@H]2CC[C@]2(C)[C@@H](C(=O)Nc4cnc(C#N)cn4)CC[C@@H]32)C1` [Compound 73, (3R,5R,8R,9R,10S,13S,14S,17S)—N-(5-cyanopyrazin-2-yl)-3-hydroxy-3-(methoxymethyl)-13-methylhexadecahydro-1H-cyclopenta[a]phenanthrene-17-carboxamide] cannot be ordered by IC50: under 100 nM for the first, under 100 nM for the second.

`COC[C@@]1(O)CC[C@@]2(C)[C@H](CC[C@@H]3[C@@H]2CC[C@]2(C)[C@@H](C(=O)Nc4ccc(C#N)cn4)CC[C@@H]32)C1` [Compound 70, (3R,5R,8R,9S,10S,13S,14S,17S)—N-(5-cyanopyridin-2-yl)-3-hydroxy-3-(methoxymethyl)-10,13-dimethylhexadecahydro-1H-cyclopenta[a]phenanthrene-17-carboxamide] and `COC[C@@]1(O)CC[C@@]2(C)[C@H](CC[C@@H]3[C@@H]2CC[C@]2(C)[C@@H](C(=O)Nc4cnc(C#N)cn4)CC[C@@H]32)C1` [Compound 72, (3R,5R,8R,9S,10S,13S,14S,17S)—N-(5-cyanopyrazin-2-yl)-3-hydroxy-3-(methoxymethyl)-10,13-dimethylhexadecahydro-1H-cyclopenta[a]phenanthrene-17-carboxamide] cannot be ordered by IC50: under 100 nM for the first, under 100 nM for the second.

`COC[C@@]1(O)CC[C@H]2[C@H](CC[C@@H]3[C@@H]2CC[C@]2(C)[C@@H](C(=O)Nc4ccc(C#N)cn4)CC[C@@H]32)C1` [Compound 71, (3R,5R,8R,9R,10S,13S,14S,17S)—N-(5-cyanopyridin-2-yl)-3-hydroxy-3-(methoxymethyl)-13-methylhexadecahydro-1H-cyclopenta[a]phenanthrene-17-carboxamide] and `COC[C@@]1(O)CC[C@H]2[C@H](CC[C@@H]3[C@@H]2CC[C@]2(C)[C@@H](C(=O)Nc4cnc(C#N)nc4)CC[C@@H]32)C1` [Compound 89, (3R,5R,8R,9R,10S,13S,14S,17S)—N-(2-cyanopyrimidin-5-yl)-3-hydroxy-3-(methoxymethyl)-13-methylhexadecahydro-1H-cyclopenta[a]phenanthrene-17-carboxamide] cannot be ordered by IC50: under 100 nM for the first, under 100 nM for the second.

`CCC[C@@]1(O)CC[C@@]2(C)[C@H](CC[C@@H]3[C@@H]2CC[C@]2(C)[C@@H](C(=O)Nc4cnc(C#N)cn4)CC[C@@H]32)C1` [Compound 74, (3R,5R,8R,9S,10S,13S,14S,17S)—N-(5-cyanopyrazin-2-yl)-3-hydroxy-10,13-dimethyl-3-propylhexadecahydro-1H-cyclopenta[a]phenanthrene-17-carboxamide] and `CCOC[C@@]1(O)CC[C@@]2(C)[C@H](CC[C@@H]3[C@@H]2CC[C@]2(C)[C@@H](C(=O)Nc4cnc(C#N)cn4)CC[C@@H]32)C1` [Compound 75, (3R,5R,8R,9S,10S,13S,14S,17S)—N-(5-cyanopyrazin-2-yl)-3-(ethoxymethyl)-3-hydroxy-10,13-dimethylhexadecahydro-1H-cyclopenta[a]phenanthrene-17-carboxamide] cannot be ordered by IC50: under 100 nM for the first, under 100 nM for the second.

Compared with `CCOC[C@@]1(O)CC[C@H]2[C@H](CC[C@@H]3[C@@H]2CC[C@]2(C)[C@@H](C(=O)Nc4cnc(C#N)nc4)CC[C@@H]32)C1` [Compound 76, (3R,5R,8R,9R,10S,13S,14S,17S)—N-(2-cyanopyrimidin-5-yl)-3-(ethoxymethyl)-3-hydroxy-13-methylhexadecahydro-1H-cyclopenta[a]phenanthrene-17-carboxamide], `CCC[C@@]1(O)CC[C@H]2[C@H](CC[C@@H]3[C@@H]2CC[C@]2(C)[C@@H](C(=O)Nc4cnc(C#N)nc4)CC[C@@H]32)C1` [Compound 86, (3R,5R,8R,9R,10S,13S,14S,17S)—N-(2-cyanopyrimidin-5-yl)-3-hydroxy-13-methyl-3-propylhexadecahydro-1H-cyclopenta[a]phenanthrene-17-carboxamide] is higher in IC50: under 100 nM for the first, 100 to 1000 nM for the second.

`CCOC[C@@]1(O)CC[C@H]2[C@H](CC[C@@H]3[C@@H]2CC[C@]2(C)[C@@H](C(=O)Nc4cc(C#N)ncn4)CC[C@@H]32)C1` [Compound 77, (3R,5R,8R,9R,10S,13S,14S,17S)—N-(6-cyanopyrimidin-4-yl)-3-(ethoxymethyl)-3-hydroxy-13-methylhexadecahydro-1H-cyclopenta[a]phenanthrene-17-carboxamide] and `CCC[C@@]1(O)CC[C@H]2[C@H](CC[C@@H]3[C@@H]2CC[C@]2(C)[C@@H](C(=O)Nc4cc(C#N)ncn4)CC[C@@H]32)C1` [Compound 84, (3R,5R,8R,9R,10S,13S,14S,17S)—N-(6-cyanopyrimidin-4-yl)-3-hydroxy-13-methyl-3-propylhexadecahydro-1H-cyclopenta[a]phenanthrene-17-carboxamide] cannot be ordered by IC50: under 100 nM for the first, under 100 nM for the second.

`CCOC[C@@]1(O)CC[C@H]2[C@H](CC[C@@H]3[C@@H]2CC[C@]2(C)[C@@H](C(=O)Nc4ccnc(C#N)n4)CC[C@@H]32)C1` [Compound 78, (3R,5R,8R,9R,10S,13S,14S,17S)—N-(2-cyanopyrimidin-4-yl)-3-(ethoxymethyl)-3-hydroxy-13-methylhexadecahydro-1H-cyclopenta[a]phenanthrene-17-carboxamide] and `CCC[C@@]1(O)CC[C@H]2[C@H](CC[C@@H]3[C@@H]2CC[C@]2(C)[C@@H](C(=O)Nc4ccnc(C#N)n4)CC[C@@H]32)C1` [Compound 87, (3R,5R,8R,9R,10S,13S,14S,17S)—N-(2-cyanopyrimidin-4-yl)-3-hydroxy-13-methyl-3-propylhexadecahydro-1H-cyclopenta[a]phenanthrene-17-carboxamide] cannot be ordered by IC50: under 100 nM for the first, under 100 nM for the second.

`CCOC[C@@]1(O)CC[C@H]2[C@H](CC[C@@H]3[C@@H]2CC[C@]2(C)[C@@H](C(=O)Nc4nccc(C#N)n4)CC[C@@H]32)C1` [Compound 79, (3R,5R,8R,9R,10S,13S,14S,17S)—N-(4-cyanopyrimidin-2-yl)-3-(ethoxymethyl)-3-hydroxy-13-methylhexadecahydro-1H-cyclopenta[a]phenanthrene-17-carboxamide] and `CCOC[C@@]1(O)CC[C@H]2[C@H](CC[C@@H]3[C@@H]2CC[C@]2(C)[C@@H](C(=O)Nc4ncc(C#N)cn4)CC[C@@H]32)C1` [Compound 82, (3R,5R,8R,9R,10S,13S,14S,17S)—N-(5-cyanopyrimidin-2-yl)-3-(ethoxymethyl)-3-hydroxy-13-methylhexadecahydro-1H-cyclopenta[a]phenanthrene-17-carboxamide] fall in the same range of IC50: 100 to 1000 nM for the first, 100 to 1000 nM for the second.

`CCC[C@@]1(O)CC[C@H]2[C@H](CC[C@@H]3[C@@H]2CC[C@]2(C)[C@@H](C(=O)Nc4ccc(F)cn4)CC[C@@H]32)C1` [Compound 81, (3R,5R,8R,9R,10S,13S,14S,17S)—N-(5-fluoropyridin-2-yl)-3-hydroxy-13-methyl-3-propylhexadecahydro-1H-cyclopenta[a]phenanthrene-17-carboxamide] and `CCC[C@@]1(O)CC[C@H]2[C@H](CC[C@@H]3[C@@H]2CC[C@]2(C)[C@@H](C(=O)Nc4cncc(C#N)n4)CC[C@@H]32)C1` [Compound 83, (3R,5R,8R,9R,10S,13S,14S,17S)—N-(6-cyanopyrazin-2-yl)-3-hydroxy-13-methyl-3-propylhexadecahydro-1H-cyclopenta[a]phenanthrene-17-carboxamide] cannot be ordered by IC50: under 100 nM for the first, under 100 nM for the second.

`C[C@H]1C[C@H]2[C@H](CC[C@@H]3[C@@H]2CC[C@]2(C)[C@@H](C(=O)Nc4ccc(C#N)nc4)CC[C@@H]32)C[C@]1(C)O` [Compound 85, (2S,3S,5R,8R,9R,10S,13S,14S,17S)—N-(6-cyanopyridin-3-yl)-3-hydroxy-2,3,13-trimethylhexadecahydro-1H-cyclopenta[a]phenanthrene-17-carboxamide] and `C[C@H]1C[C@H]2[C@H](CC[C@@H]3[C@@H]2CC[C@]2(C)[C@@H](C(=O)Nc4cnc(C#N)cn4)CC[C@@H]32)C[C@]1(C)O` [Compound 88, (2S,3S,5R,8R,9R,10S,13S,14S,17S)—N-(5-cyanopyrazin-2-yl)-3-hydroxy-2,3,13-trimethylhexadecahydro-1H-cyclopenta[a]phenanthrene-17-carboxamide] cannot be ordered by IC50: under 100 nM for the first, under 100 nM for the second.
